Results on 20 compounds are retold here after ChEMBL document CHEMBL2021793, “Synthesis, biological evaluation and structure-activity relationships of glycyrrhetinic acid derivatives as novel anti-hepatitis B virus agents” (Bioorg Med Chem Lett, 2012).

Series [1] deals with Hepatitis B virus. Kind of series: Antiviral activity against Hepatitis B virus infected in human HepG2(2.2.15) cells assessed as reduction in hepatitis B surface antigen release. In kind it is functional, organism-based.
Series [2] has as its system Hepatitis B virus. In words: Antiviral activity against Hepatitis B virus infected in human HepG2(2.2.15) cells assessed as reduction in viral DNA replication. The series is classed as functional, organism-based.
Series [3] in a line: Cytotoxicity against human HepG2(2.2.15) cells. In kind it is cell-based.
The test system of series [4] is Hepatitis B virus. In words: Antiviral activity against Hepatitis B virus infected in human HepG2(2.2.15) cells assessed as reduction in hepatitis B e-antigen release. The series is classed as functional, organism-based.

What is called IC50 is the point on the concentration scale where inhibition reaches its midpoint. One may read the CC50 as the concentration giving 50% cytotoxicity.

In the case of `COC(=O)[C@@]1(C)CC[C@]2(C)CC[C@]3(C)C(=CC(=O)[C@@H]4[C@@]5(C)CC[C@H](O)C(C)(C)[C@@H]5CC[C@]43C)[C@@H]2C1`, the IC50 was greater than 1740 µM in the series with Hepatitis B virus [1], greater than 444 µM in the series with Hepatitis B virus [2] and greater than 1740 µM in the series on Hepatitis B virus [4]. In series [3], this compound returned a CC50 greater than 1740 µM.
As for `CC1(C)[C@@H](O)CC[C@]2(C)[C@H]3C(=O)C=C4[C@@H]5C[C@@](C)(C(=O)OCc6cc(F)cc(F)c6)CC[C@]5(C)CC[C@@]4(C)[C@]3(C)CC[C@@H]12`, the values for the IC50 with Hepatitis B virus [1], in the series on Hepatitis B virus [2] and in the series on Hepatitis B virus [4] were greater than 1230 µM, greater than 307 µM and greater than 1230 µM, respectively. The compound further came in with a CC50 in series [3] greater than 1230 µM.
Consider `CC1(C)[C@@H](O)CC[C@]2(C)[C@H]3C(=O)C=C4[C@@H]5C[C@@](C)(C(=O)OCc6cc(C(F)(F)F)cc(C(F)(F)F)c6)CC[C@]5(C)CC[C@@]4(C)[C@]3(C)CC[C@@H]12`, for which the half-inhibitory concentration (IC50) in the series with Hepatitis B virus [1] was greater than 1700 µM; in the series with Hepatitis B virus [2] it was greater than 426 µM; with Hepatitis B virus [4], greater than 1700 µM. In addition, the CC50 in series [3] was greater than 1700 µM.
With `CC1(C)[C@@H](O)CC[C@]2(C)[C@H]3CC=C4[C@@H]5C[C@@](C)(C(=O)OCc6ccc(C(F)(F)F)cc6)CC[C@]5(C)CC[C@@]4(C)[C@]3(C)CC[C@@H]12`, the IC50 in the series with Hepatitis B virus [1] was greater than 1500 µM; with Hepatitis B virus [2] it was greater than 375 µM; in the series on Hepatitis B virus [4], greater than 1500 µM. The same compound had a half-maximal cytotoxic concentration (CC50) in series [3] greater than 1500 µM.
Take `CC1(C)[C@@H](O)CC[C@]2(C)[C@H]3CC=C4[C@@H]5C[C@@](C)(C(=O)OCc6ccc(Br)cc6F)CC[C@]5(C)CC[C@@]4(C)[C@]3(C)CC[C@@H]12`: the results for the IC50 in the series on Hepatitis B virus [1], with Hepatitis B virus [2] and in the series on Hepatitis B virus [4] were greater than 1530 µM, greater than 382 µM and greater than 1530 µM, respectively. Besides, the CC50 in series [3] is 1150 µM.
`CCOC(=O)CCCOC(=O)[C@@]1(C)CC[C@]2(C)CC[C@]3(C)C(=CC[C@@H]4[C@@]5(C)CC[C@H](O)C(C)(C)[C@@H]5CC[C@]43C)[C@@H]2C1`: the IC50 in the series with Hepatitis B virus [1] was 638 µM; in the series on Hepatitis B virus [2], greater than 292 µM; in the series with Hepatitis B virus [4] it was greater than 1170 µM. The same compound had a CC50 in series [3] of 530 µM.
In the same order, the values of `COc1cc(/C=C/C(=O)O[C@H]2CC[C@]3(C)[C@H]4CC=C5[C@@H]6C[C@@](C)(C(=O)OCc7ccc(C(F)(F)F)cc7)CC[C@]6(C)CC[C@@]5(C)[C@]4(C)CC[C@H]3C2(C)C)cc(OC)c1OC` are greater than 987 µM, greater than 247 µM, greater than 987 µM and greater than 987 µM.
With `COc1cccc(/C=C/C(=O)O[C@H]2CC[C@]3(C)[C@H]4CC=C5[C@@H]6C[C@@](C)(C(=O)OCc7ccc(C(F)(F)F)cc7)CC[C@]6(C)CC[C@@]5(C)[C@]4(C)CC[C@H]3C2(C)C)c1`, the IC50 is greater than 899 µM in the series with Hepatitis B virus [1], greater than 225 µM in the series on Hepatitis B virus [2] and greater than 899 µM in the series on Hepatitis B virus [4]. Also, the CC50 in series [3] was greater than 899 µM.
Turning to `CC1(C)[C@@H](OC(=O)c2cc(=O)c3ccccc3o2)CC[C@]2(C)[C@H]3CC=C4[C@@H]5C[C@@](C)(C(=O)OCc6ccc(C(F)(F)F)cc6)CC[C@]5(C)CC[C@@]4(C)[C@]3(C)CC[C@@H]12`, the values for the half-maximal inhibitory concentration (IC50) in the series with Hepatitis B virus [1], with Hepatitis B virus [2] and in the series with Hepatitis B virus [4] were greater than 1170 µM, greater than 293 µM and greater than 1170 µM, respectively. In addition, the 50% cytotoxic concentration (CC50) in series [3] was greater than 1170 µM.
For `COc1cc(/C=C/C(=O)O[C@H]2CC[C@]3(C)[C@H]4CC=C5[C@@H]6C[C@@](C)(C(=O)OCc7ccc(Br)cc7F)CC[C@]6(C)CC[C@@]5(C)[C@]4(C)CC[C@H]3C2(C)C)cc(OC)c1OC`, the half-maximal inhibitory concentration (IC50) in the series on Hepatitis B virus [1] is greater than 1030 µM; in the series on Hepatitis B virus [2], greater than 259 µM; in the series on Hepatitis B virus [4] it was greater than 1030 µM. Besides, it took 935 µM to reach half-maximal cytotoxicity in series [3] (CC50).
As for `COc1cccc(/C=C/C(=O)O[C@H]2CC[C@]3(C)[C@H]4CC=C5[C@@H]6C[C@@](C)(C(=O)OCc7ccc(Br)cc7F)CC[C@]6(C)CC[C@@]5(C)[C@]4(C)CC[C@H]3C2(C)C)c1`, the results for the IC50 in the series with Hepatitis B virus [1], in the series with Hepatitis B virus [2] and with Hepatitis B virus [4] were greater than 1000 µM, greater than 250 µM and greater than 1000 µM, respectively. In series [3], this compound showed a 50% cytotoxic concentration (CC50) greater than 1000 µM.
In the case of `CC1(C)[C@@H](OC(=O)c2cc(=O)c3ccccc3o2)CC[C@]2(C)[C@H]3CC=C4[C@@H]5C[C@@](C)(C(=O)OCc6ccc(Br)cc6F)CC[C@]5(C)CC[C@@]4(C)[C@]3(C)CC[C@@H]12`, the IC50 is greater than 1080 µM with Hepatitis B virus [1], greater than 271 µM in the series on Hepatitis B virus [2] and greater than 1080 µM with Hepatitis B virus [4]. This compound also showed a CC50 in series [3] greater than 1080 µM.
Consider `CCOC(=O)CCCOC(=O)[C@@]1(C)CC[C@]2(C)CC[C@]3(C)C(=CC[C@@H]4[C@@]5(C)CC[C@H](OC(=O)/C=C/c6cc(OC)c(OC)c(OC)c6)C(C)(C)[C@@H]5CC[C@]43C)[C@@H]2C1`, for which the results for the 50% inhibitory concentration (IC50) with Hepatitis B virus [1], with Hepatitis B virus [2] and in the series on Hepatitis B virus [4] were greater than 1230 µM, greater than 307 µM and greater than 1230 µM, respectively. Also, in series [3], the cytotoxic concentration (CC50) was greater than 1230 µM.
On to `CCOC(=O)CCCOC(=O)[C@@]1(C)CC[C@]2(C)CC[C@]3(C)C(=CC[C@@H]4[C@@]5(C)CC[C@H](OC(=O)c6cc(=O)c7ccccc7o6)C(C)(C)[C@@H]5CC[C@]43C)[C@@H]2C1`, for which the IC50 in the series with Hepatitis B virus [1] is greater than 1180 µM; with Hepatitis B virus [2] it was greater than 294 µM; in the series with Hepatitis B virus [4], greater than 1180 µM. The compound further came in with a half-maximal cytotoxic concentration (CC50) in series [3] greater than 1180 µM.
Take `CC1(C)[C@@H](OC(=O)c2cc(=O)c3ccccc3o2)CC[C@]2(C)[C@H]3CC=C4[C@@H]5C[C@@](C)(C(=O)OCC(N)=O)CC[C@]5(C)CC[C@@]4(C)[C@]3(C)CC[C@@H]12`: the IC50 in the series on Hepatitis B virus [1] was greater than 944 µM; in the series on Hepatitis B virus [2], greater than 236 µM; in the series with Hepatitis B virus [4], greater than 944 µM. For the same compound, the 50% cytotoxic concentration (CC50) in series [3] is greater than 944 µM.
For `C=CCOC(=O)[C@@]1(C)CC[C@]2(C)CC[C@]3(C)C(=CC(=O)[C@@H]4[C@@]5(C)CC[C@H](O)C(C)(C)[C@@H]5CC[C@]43C)[C@@H]2C1`, the results for the IC50 with Hepatitis B virus [1], in the series with Hepatitis B virus [2] and in the series on Hepatitis B virus [4] were greater than 2310 µM, greater than 578 µM and greater than 2310 µM, respectively. For the same compound, the half-maximal cytotoxic concentration (CC50) in series [3] was greater than 2310 µM.
In the case of `CCCCOC(=O)[C@@]1(C)CC[C@]2(C)CC[C@]3(C)C(=CC(=O)[C@@H]4[C@@]5(C)CC[C@H](O)C(C)(C)[C@@H]5CC[C@]43C)[C@@H]2C1`, the figures for the half-maximal inhibitory concentration (IC50) with Hepatitis B virus [1], with Hepatitis B virus [2] and in the series on Hepatitis B virus [4] were greater than 986 µM, greater than 247 µM and greater than 986 µM, respectively. The compound further came in with a half-maximal cytotoxic concentration (CC50) in series [3] greater than 986 µM.
As for `CCCCCCCCOC(=O)[C@@]1(C)CC[C@]2(C)CC[C@]3(C)C(=CC(=O)[C@@H]4[C@@]5(C)CC[C@H](O)C(C)(C)[C@@H]5CC[C@]43C)[C@@H]2C1`, the figures for the IC50 in the series with Hepatitis B virus [1], with Hepatitis B virus [2] and in the series with Hepatitis B virus [4] were greater than 1450 µM, greater than 362 µM and greater than 1450 µM, respectively. This compound also came in with a 50% cytotoxic concentration (CC50) in series [3] greater than 1450 µM.
In the case of `CCCCCCCCCCOC(=O)[C@@]1(C)CC[C@]2(C)CC[C@]3(C)C(=CC(=O)[C@@H]4[C@@]5(C)CC[C@H](O)C(C)(C)[C@@H]5CC[C@]43C)[C@@H]2C1`, the half-inhibitory concentration (IC50) is greater than 1030 µM in the series on Hepatitis B virus [1], greater than 257 µM in the series with Hepatitis B virus [2] and greater than 1030 µM with Hepatitis B virus [4]. Also, the cytotoxic concentration (CC50) in series [3] was greater than 1030 µM.
Turning to `CC1(C)[C@@H](O)CC[C@]2(C)[C@H]3C(=O)C=C4[C@@H]5C[C@@](C)(C(=O)OCC6CCOCC6)CC[C@]5(C)CC[C@@]4(C)[C@]3(C)CC[C@@H]12`, the IC50 in the series with Hepatitis B virus [1] was greater than 1910 µM; in the series with Hepatitis B virus [2] it was greater than 479 µM; with Hepatitis B virus [4] it was greater than 1910 µM. The CC50 in series [3] is greater than 1910 µM.
